Source: ChEMBL document CHEMBL1201862, “PubChem BioAssay data set” (2004)
Active and inactive are the calls of the source.

Columns and labels:
[1] = biological target: Mitogen-activated protein kinase 10 (Homo sapiens, UniProt P53779); experiment: Dose response biochemical screening assay for inhibitors of c-Jun N-Terminal Kinase 3 (JNK3). [Related pubchem assays: 746 ]
[2] = biological target: Muscarinic acetylcholine receptor M1 (Rattus norvegicus, UniProt P08482); experiment: rat M1 positive allosteric modulator potency, dose response, cell-based, calcium mobilization, CHO-K1, ACh EC20 (AID 2425); format: functional
[3] = A549 cell cytotoxicity, dose response, CellTiter-Glo luminescence, dry powder, set 17 (AID 1117284); format: functional, cell-based
[4] = biological target: T1, Sentrin-specific protease 8 (Homo sapiens, UniProt Q96LD8); format: functional
T1 sequence (Q96LD8 whole entry): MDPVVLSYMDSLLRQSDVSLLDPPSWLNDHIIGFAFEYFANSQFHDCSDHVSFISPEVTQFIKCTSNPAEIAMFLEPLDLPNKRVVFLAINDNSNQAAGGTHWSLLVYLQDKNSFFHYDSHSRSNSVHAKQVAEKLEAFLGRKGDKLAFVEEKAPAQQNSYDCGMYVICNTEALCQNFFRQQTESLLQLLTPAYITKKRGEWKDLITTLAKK

[5] = biological target: T2, Histone-lysine N-methyltransferase NSD2 (Homo sapiens, UniProt O96028); format: biochemical
T2 sequence (O96028 whole entry): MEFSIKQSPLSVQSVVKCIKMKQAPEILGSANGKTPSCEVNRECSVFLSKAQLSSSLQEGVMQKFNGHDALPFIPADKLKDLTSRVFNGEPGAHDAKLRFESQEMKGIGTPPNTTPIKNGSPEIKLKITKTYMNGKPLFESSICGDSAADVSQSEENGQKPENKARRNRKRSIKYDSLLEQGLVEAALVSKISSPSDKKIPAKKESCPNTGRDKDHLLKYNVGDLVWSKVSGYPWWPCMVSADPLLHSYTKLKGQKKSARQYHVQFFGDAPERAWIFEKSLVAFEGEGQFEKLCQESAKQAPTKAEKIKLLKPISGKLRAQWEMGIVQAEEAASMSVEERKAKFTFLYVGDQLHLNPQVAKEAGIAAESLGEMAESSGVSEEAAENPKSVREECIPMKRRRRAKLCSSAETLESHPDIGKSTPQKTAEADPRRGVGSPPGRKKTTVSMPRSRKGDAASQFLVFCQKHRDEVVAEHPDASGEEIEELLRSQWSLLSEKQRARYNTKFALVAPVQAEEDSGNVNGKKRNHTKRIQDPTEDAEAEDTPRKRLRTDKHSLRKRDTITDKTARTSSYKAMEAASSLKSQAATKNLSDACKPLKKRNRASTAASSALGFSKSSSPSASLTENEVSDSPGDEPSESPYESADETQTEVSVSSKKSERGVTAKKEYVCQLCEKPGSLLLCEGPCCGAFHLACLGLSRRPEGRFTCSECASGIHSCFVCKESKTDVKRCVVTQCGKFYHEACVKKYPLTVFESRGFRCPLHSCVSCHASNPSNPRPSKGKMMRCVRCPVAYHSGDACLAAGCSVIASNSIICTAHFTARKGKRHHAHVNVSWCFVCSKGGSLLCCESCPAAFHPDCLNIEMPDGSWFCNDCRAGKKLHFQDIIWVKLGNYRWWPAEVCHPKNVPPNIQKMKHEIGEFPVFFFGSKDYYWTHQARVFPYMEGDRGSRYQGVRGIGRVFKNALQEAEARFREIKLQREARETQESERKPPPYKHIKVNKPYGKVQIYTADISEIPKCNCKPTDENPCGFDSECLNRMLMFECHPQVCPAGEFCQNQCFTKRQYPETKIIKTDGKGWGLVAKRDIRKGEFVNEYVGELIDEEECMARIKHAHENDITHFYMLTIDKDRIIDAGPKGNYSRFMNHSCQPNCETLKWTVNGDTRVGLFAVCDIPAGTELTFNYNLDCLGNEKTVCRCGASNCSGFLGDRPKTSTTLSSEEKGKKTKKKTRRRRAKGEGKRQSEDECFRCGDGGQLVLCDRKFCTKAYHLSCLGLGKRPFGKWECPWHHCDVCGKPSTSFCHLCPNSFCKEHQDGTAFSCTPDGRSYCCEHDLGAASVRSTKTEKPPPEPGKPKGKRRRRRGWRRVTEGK

[6] = biological target: T1, Sentrin-specific protease 8; format: functional; remark: listed apart in the source
[7] = biological target: Serine/threonine-protein phosphatase PP1-alpha catalytic subunit (Homo sapiens, UniProt P62136); experiment: PP1 phosphatase inhibitors, dose response, biochemical, fluorescence (AID 2394)
[8] = biological target: T3, Serine/threonine-protein phosphatase (Homo sapiens, UniProt Q9BPW0); experiment: PP5 phosphatase inhibitors, dose response, biochemical, fluorescence (AID 2395)
T3 sequence (Q9BPW0 whole entry): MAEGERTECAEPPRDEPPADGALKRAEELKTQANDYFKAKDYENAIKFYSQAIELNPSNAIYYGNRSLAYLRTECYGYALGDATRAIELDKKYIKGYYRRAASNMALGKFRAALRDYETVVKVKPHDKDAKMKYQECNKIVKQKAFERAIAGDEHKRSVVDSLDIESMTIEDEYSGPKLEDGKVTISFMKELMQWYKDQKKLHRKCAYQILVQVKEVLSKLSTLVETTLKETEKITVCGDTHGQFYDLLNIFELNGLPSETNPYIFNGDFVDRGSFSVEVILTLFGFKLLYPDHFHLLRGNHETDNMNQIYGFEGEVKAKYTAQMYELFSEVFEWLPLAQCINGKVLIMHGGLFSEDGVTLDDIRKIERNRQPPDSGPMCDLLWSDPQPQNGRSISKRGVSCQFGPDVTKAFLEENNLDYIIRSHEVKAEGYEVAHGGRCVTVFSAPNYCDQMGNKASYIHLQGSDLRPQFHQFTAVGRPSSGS

[9] = system: Vero; experiment: West Nile virus antiviral activity, cell-based, CPE readout (AID 1621); format: functional; conditions: Chlorocebus sabaeus
[10] = biological target: E3 ubiquitin-protein ligase Mdm2 (Homo sapiens, UniProt Q00987); experiment: enhancers of MDM2-luciferase reporter signal, concentration-effect titration, project on inhibitors of MDM2 ubiquitin ligase, cellular assay, luminescent readout, 384-well plate format (AID 1394); format: functional;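 also: MDM2 E3 inhibitors raise luminescence so EC50 is for signal enhancement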
[11] = biological target: Galanin receptor type 2 (Homo sapiens, UniProt O43603); experiment: Dose Response cell-based high-throughput screening assay to identify antagonists of galanin receptor 2 (GALR2). [Related pubchem assays: 828, 866 ]; format: functional
[12] = HEK293T cytotoxicity, dose response, cytotoxicity control for miR-122 modulator project, cell-based, activator set, cherry-pick (AID 720690); format: functional;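 also: HEK293T human cells scored for general mammalian cytotoxicity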
[13] = biological target: T4, Microphthalmia-associated transcription factor (Homo sapiens, UniProt O75030); experiment: TRPM1 promoter luciferase signal decrease, dose response, MITF inhibitor project, cell-based, SK-MEL-5, cherry-picked, set 3 (AID 493073); format: functional
T4 sequence (O75030 whole entry): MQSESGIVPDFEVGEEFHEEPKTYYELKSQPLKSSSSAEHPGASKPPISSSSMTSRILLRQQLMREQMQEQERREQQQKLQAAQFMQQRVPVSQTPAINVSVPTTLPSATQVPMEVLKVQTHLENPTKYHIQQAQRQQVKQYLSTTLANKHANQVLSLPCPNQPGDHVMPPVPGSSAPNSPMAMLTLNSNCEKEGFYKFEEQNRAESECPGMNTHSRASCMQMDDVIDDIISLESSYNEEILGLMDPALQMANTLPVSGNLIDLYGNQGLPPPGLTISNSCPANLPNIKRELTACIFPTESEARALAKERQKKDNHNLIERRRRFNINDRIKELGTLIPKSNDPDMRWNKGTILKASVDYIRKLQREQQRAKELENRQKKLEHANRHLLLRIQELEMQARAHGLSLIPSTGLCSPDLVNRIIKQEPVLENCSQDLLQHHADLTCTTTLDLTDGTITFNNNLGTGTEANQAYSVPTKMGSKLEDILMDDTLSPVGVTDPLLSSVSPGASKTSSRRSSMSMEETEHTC

[14] = miR-122 activators in hepatoma reporter cells, dose response, cell-based, Huh7 psiCHECK-miR122, Renilla luciferase, cherry-picked (AID 651956); format: functional;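 also: huh7 hepatoma cells stably carrying a psiCHECK-2 miR-122 sensor plasmid; renilla luciferase signal reporting endogenous miR-122 activity after 48 h compound exposure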
[15] = biological target: Sphingosine 1-phosphate receptor 1 (Homo sapiens, UniProt P21453); format: functional;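 also: Tango beta-arrestin reporter U2OS cells stimulated with S1P near its EC80; inhibitor potency meaning antagonism of receptor activation by the natural agonist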
[16] = biological target: Sphingosine 1-phosphate receptor 4 (Homo sapiens, UniProt O95977); experiment: Fluorescence dose response cell-based high throughput screening assay for antagonists of the Sphingosine 1-Phosphate Receptor 4 (S1P4). [Related pubchem assays: 1524 (Confirmation in triplicates.), 1510 (Primary screen.)]; format: functional
[17] = system: Vero; experiment: cells; format: functional, cell-based; conditions: Chlorocebus sabaeus
[18] = biological target: Induced myeloid leukemia cell differentiation protein Mcl-1 (Homo sapiens, UniProt Q07820); format: functional
[19] = THP-1 cell cytotoxicity, dose response, cytotoxicity control for Vif-APOBEC3G degradation inhibitor project, THP-1 cells (AID 1117359); format: functional; conditions: Human immunodeficiency virus 1, THP-1
[20] = biological target: Transthyretin (Homo sapiens, UniProt P02766); experiment: Luminescence-based cell-based high throughput dose response assay to identify activators of Transthyretin (TTR) transcription.; format: functional
[21] = SNU-C1 cell viability reduction, dose response, CellTiter-Glo luminescence (AID 1117323); format: functional, cell-based
[22] = RKO cell viability reduction, dose response, CellTiter-Glo luminescence (AID 1117322); format: functional
[23] = HCT116 cell viability decrease, GSK3B pretreatment – CellTiter-Glo, IC50, dose response (AID 1117339); format: functional; conditions: HCT-116
[24] = cells; format: functional, cell-based; conditions: INS-1E
[25] = cytotoxicity toward HCT116 cells – cell-based, CellTiter-Glo luminescence, IC50, dose response (AID 1117332); format: functional; conditions: HCT-116
[26] = CellTiter-Glo luminescent dose response of DLD-1 viability loss (AID 1117352); format: functional
[27] = Dose-response inhibition of insulin secretion in a rat insulinoma line at 5 mM glucose (AID 1117331); format: functional, cell-based; conditions: INS-1E
[28] = Concentration-dependent survival of SW480 colon cancer line, luminescence detection with CellTiter-Glo, half-maximal inhibitory concentration (AID 1117338); format: functional
[29] = cytotoxicity toward HT-29 cells – cell-based, CellTiter-Glo luminescence, IC50, dose response (AID 1117330); format: functional
[30] = Jurkat T cell cytotoxicity, dose response, cytotoxicity control for P. falciparum gametocyte viability project, luminescence (AID 1117277); format: functional, cell-based;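 also: potency reflects loss of cellular ATP meaning fewer viable cells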
[31] = P. falciparum late gametocyte killing, dose response, luminescence (AID 1117278); format: functional, cell-based;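 also: gametocytes exposed to compound for 24 hours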

Mitogen-activated protein kinase 10, sequence (P53779 whole entry): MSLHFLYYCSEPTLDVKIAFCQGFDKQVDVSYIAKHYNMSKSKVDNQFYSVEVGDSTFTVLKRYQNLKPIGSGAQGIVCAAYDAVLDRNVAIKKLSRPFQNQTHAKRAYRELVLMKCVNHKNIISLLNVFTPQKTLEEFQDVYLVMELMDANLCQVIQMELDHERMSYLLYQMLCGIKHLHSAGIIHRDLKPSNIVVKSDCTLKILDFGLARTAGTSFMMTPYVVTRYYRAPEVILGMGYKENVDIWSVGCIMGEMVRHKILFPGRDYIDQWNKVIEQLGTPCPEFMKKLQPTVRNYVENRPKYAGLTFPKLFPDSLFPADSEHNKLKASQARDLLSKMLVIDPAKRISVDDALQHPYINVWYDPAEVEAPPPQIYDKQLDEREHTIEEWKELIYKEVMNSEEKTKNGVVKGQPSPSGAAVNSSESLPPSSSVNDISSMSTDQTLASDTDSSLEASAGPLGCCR
E3 ubiquitin-protein ligase Mdm2, sequence (Q00987 whole entry): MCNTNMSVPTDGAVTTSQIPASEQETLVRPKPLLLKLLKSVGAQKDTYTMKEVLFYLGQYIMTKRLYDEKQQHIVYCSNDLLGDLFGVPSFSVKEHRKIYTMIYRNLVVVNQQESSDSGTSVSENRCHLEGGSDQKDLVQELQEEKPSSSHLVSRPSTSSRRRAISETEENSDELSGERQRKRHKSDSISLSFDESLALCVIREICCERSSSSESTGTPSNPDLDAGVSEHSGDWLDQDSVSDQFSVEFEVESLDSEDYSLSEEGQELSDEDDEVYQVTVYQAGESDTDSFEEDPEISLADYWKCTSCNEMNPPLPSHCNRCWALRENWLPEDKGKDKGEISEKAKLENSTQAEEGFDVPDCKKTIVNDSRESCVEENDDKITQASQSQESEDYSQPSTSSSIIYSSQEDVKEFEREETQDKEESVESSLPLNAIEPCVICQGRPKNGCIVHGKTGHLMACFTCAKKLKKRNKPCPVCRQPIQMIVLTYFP
Muscarinic acetylcholine receptor M1, sequence (P08482 whole entry): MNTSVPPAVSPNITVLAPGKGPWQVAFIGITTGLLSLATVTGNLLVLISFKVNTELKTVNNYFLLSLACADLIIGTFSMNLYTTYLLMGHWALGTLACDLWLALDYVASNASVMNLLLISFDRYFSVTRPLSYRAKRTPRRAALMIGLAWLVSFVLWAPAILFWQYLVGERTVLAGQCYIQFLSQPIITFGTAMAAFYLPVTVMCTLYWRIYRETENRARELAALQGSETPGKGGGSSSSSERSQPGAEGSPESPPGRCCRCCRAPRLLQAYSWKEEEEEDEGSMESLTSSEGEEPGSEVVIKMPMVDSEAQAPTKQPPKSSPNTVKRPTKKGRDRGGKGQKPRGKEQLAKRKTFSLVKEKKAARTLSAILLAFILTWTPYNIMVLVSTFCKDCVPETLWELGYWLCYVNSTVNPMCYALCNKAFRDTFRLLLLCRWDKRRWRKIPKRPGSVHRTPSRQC
Sphingosine 1-phosphate receptor 4, sequence (O95977 whole entry): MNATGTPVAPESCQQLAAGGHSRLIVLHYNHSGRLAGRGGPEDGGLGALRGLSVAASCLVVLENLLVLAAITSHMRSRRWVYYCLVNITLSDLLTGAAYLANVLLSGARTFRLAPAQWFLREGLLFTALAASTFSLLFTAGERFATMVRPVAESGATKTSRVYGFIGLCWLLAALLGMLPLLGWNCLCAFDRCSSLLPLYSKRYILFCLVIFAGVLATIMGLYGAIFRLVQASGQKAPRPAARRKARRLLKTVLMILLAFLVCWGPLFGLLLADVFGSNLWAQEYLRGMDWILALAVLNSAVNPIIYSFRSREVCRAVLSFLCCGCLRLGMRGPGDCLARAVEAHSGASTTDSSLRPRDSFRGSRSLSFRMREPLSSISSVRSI
Serine/threonine-protein phosphatase PP1-alpha catalytic subunit, sequence (P62136 whole entry): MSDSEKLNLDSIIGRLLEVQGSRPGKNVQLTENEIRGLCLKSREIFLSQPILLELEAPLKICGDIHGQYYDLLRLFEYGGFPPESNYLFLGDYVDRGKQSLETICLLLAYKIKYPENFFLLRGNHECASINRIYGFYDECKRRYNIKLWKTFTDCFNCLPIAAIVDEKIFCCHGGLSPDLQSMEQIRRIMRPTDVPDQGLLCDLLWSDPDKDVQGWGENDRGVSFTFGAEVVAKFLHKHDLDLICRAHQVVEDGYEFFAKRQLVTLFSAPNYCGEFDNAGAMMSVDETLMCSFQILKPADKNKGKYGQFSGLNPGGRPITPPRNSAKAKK
Induced myeloid leukemia cell differentiation protein Mcl-1, sequence (Q07820 whole entry): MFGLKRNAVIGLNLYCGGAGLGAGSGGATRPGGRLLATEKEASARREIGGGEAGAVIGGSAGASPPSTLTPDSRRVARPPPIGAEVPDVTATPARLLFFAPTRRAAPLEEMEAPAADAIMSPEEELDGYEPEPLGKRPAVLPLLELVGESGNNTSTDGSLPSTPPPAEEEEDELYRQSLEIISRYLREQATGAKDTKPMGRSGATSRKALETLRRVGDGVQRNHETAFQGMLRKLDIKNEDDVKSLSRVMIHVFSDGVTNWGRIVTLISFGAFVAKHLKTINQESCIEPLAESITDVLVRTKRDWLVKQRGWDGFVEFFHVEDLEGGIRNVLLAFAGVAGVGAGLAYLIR
Galanin receptor type 2, sequence (O43603 whole entry): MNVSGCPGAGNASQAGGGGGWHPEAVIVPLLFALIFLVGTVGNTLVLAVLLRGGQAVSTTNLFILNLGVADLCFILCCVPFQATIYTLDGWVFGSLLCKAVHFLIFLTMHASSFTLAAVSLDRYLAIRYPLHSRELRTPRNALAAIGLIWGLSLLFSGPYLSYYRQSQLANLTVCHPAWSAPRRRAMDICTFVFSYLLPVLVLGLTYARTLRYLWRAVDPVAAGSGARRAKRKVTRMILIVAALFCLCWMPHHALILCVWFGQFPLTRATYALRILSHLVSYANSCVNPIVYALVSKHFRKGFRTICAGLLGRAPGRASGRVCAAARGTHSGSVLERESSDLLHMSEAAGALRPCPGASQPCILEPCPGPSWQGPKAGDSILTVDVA
Sphingosine 1-phosphate receptor 1, sequence (P21453 whole entry): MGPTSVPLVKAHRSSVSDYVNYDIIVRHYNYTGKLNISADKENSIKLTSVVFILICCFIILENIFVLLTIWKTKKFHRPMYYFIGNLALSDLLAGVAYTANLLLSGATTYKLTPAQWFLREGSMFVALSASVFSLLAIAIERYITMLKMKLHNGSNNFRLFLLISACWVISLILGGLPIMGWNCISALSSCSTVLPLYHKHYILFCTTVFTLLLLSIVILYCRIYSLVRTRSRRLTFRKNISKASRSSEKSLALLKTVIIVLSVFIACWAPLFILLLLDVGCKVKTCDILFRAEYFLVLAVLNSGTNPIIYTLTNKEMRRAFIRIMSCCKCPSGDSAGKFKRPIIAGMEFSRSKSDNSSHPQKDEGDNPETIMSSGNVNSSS

## c1csc(-c2cnc3ccccc3n2)c1
[1]
  IC50: 34 µM (not active)

## Cn1cc(-c2cc(F)c(CN3C(=O)C(=O)c4cccc(F)c43)c(F)c2)cn1
[2]
  EC50: 1.03 µM (active)

## COc1ccc(-c2ccc3c(c2)O[C@@H](CN(C)Cc2ccc(-c4ccccc4)cc2)[C@@H](C)CN([C@@H](C)CO)S3(=O)=O)cc1
[3]
  AC50: 32.6 µM (active)

## CCOc1ccc(NC(S)=Nc2ccc3nsnc3c2)cc1
[4]
  IC50: 5.72 µM (active)
[5]
  AC50: 4.61 µM (active)
[6]
  IC50: 2.32 µM (active)
[7]
  IC50: > 67 µM (not active)
[8]
  IC50: 8.78 µM (active)

## Cn1cc(-c2ccc(CN3C(=O)C(=O)c4c(F)ccc(F)c43)c(F)c2)cn1
[2]
  EC50: 1.23 µM (active)

## CCN(CC)CCNC(=O)C1CCN(S(=O)(=O)c2c(C)noc2/C=C/c2ccccc2F)CC1
[9]
  IC50: 25 µM (active)

## O=C(c1cccc(F)c1)N1CCCC(C(=O)N2CCCC2)C1 (stereo not drawn)
[1]
  IC50: > 93.1 µM (not active)

## COc1cccc(-c2ccc(CN(C)C[C@@H]3Oc4cc(C#C[C@@H](C)O)ccc4S(=O)(=O)N([C@@H](C)CO)C[C@@H]3C)cc2)c1
[3]
  AC50: 32.6 µM (active)

## Cc1cc(C(=O)Nc2cccc3ccccc23)n(-c2ccccc2)n1
[10]
  EC50: 25 µM (not active)

## CCc1ccccc1NC(=O)CN(C)C(=O)Cn1ncc(Cl)c(Cl)c1=O
[11]
  IC50: 7.62 µM (active)
[12]
  AC50: 4.59 µM (active)
[13]
  AC50: 11 µM (active)
[14]
  AC50: 13.2 µM (active)
[15]
  IC50: 13.6 µM (not active)
[16]
  IC50: 2.11 µM (active)

## CN(C)CCNC(=O)c1cc2sc3ccccc3c2s1
[9]
  IC50: 24.5 µM (active)
[17]
  IC50: 21 µM (active)

## Cc1cc(C(=O)COC(=O)c2cc(O)c3ccccc3c2O)c(C)n1CC1CCCO1 (stereo not drawn)
[18]
  IC50: 3.09 µM (active)
[19]
  CC50: 25.9 µM (active)

## Cc1cccc(NC(c2ccc(O)cc2)c2ccc3ccc(C)nc3c2O)n1 (stereo not drawn)
[20]
  EC50: > 167 µM (inactive)

## Cc1noc(C)c1COc1ccc(C(=O)NCc2ccccn2)cc1
[10]
  EC50: 2.96 µM (not active)

## Cc1c(C)n(Cc2ccccc2)c2ccc(C(=O)OCCN(C)C)cc12 [INDOCATE]
[21]
  IC50: 12 µM (inactive)
[22]
  IC50: 12.8 µM (inactive)
[23]
  IC50: 5.47 µM (inactive)
[24]
  IC50: 14.9 µM (inactive)
[25]
  IC50: 11.8 µM (inactive)
[26]
  IC50: 11.3 µM (inactive)
[27]
  IC50: 3.84 µM (active)
[28]
  IC50: 8.78 µM (inactive)
[29]
  IC50: > 6.67 µM (inactive)

## CN1CCc2cc(Cl)c(O)cc2[C@H]2c3ccccc3CC[C@@H]21 [ECOPIPAM]
[24]
  IC50: > 33.3 µM (inactive)
[27]
  IC50: 15.4 µM (inactive)

## COc1ccc(N2C(=O)CSC23C(=O)N2CCCc4cccc3c42)cc1 (stereo not drawn)
[30]
  IC50: > 83.3 µM (inactive)
[31]
  IC50: > 109 µM (inactive)
